US12576015B2, “Antimicrobial mixture containing 4-(3-ethoxy-4-hydroxyphenyl)butan-2-one and an alcohol compound, and cosmetic composition containing same” (L'OREAL, priority 2018, dated 2026)

Test system: Aspergillus niger ATCC 6275
Assay: Microplate growth inhibition / MIC and FIC index (synergy) test, optical density at 620 nm
Assay type: cell-based
Details: for microbial growth percentage: 0 A
Description: 1] with: • MIC of A with B: minimum concentration of product A in the combination A+B which makes it possible to obtain an inhibitory effect; • MIC of B with A: minimum concentration of product B in the combination A+B which makes it possible to obtain an inhibitory effect; • MIC of A: minimum inhibitory concentration of product A alone; • MIC of B: minimum inhibitory concentration of product B alone.
When the FIC index value is less than or equal to 1, it is considered that the combination of test compounds has a synergistic effect.
The microbial strain Aspergillus niger ATCC 6275, and a double-concentration Sabouraud broth liquid culture medium supplemented with polyoxyethylenated (20 EO) sorbitan monopalmitate (Tween 40 from Croda) and Phytagel© BioReagent were used (i.e. a mixture of 5 g of Phytagel+0.6 g of Tween 40+60 g of Sabouraud broth).
A 96-well microplate at an incubation temperature of 32.5° C. is used.
The incubation time of the microplate is: • from 24 to 30 h under aerobic conditions for microbial Aspergillus niger ATCC 6275; • from 18 to 24 h under aerobic conditions for Candida albicans ATCC 10231, Pseudomonas aeruginosa ATCC 9027 and Staphylococcus aureus ATCC 6538; Tests
A 10% (weight/volume) stock solution was prepared by mixing 1 g of compound in 9 ml of aqueous 1%0 agar solution. Successive dilutions were made with the 1%0 agar solution.
50 μl of each of the daughter solutions obtained containing compound A or B are added to the microplate wells. 100 μl of Sabouraud liquid nutrient broth inoculated at double concentration with the Aspergillus niger strain and 50 μl of aqueous 1%0 agar solution are also added thereto.
50 μl of each of the daughter solutions obtained containing compound A and 50 μl of each of the daughter solutions obtained containing compound B are added to the microplate wells. 100 μl of Sabouraud liquid nutrient broth inoculated at double concentration with the strain Aspergillus niger are also added thereto.
A positive microbial growth control was also prepared. The positive microbial growth control corresponds to the mixture of 100 μl of aqueous 1%0 agar solution with 100 μl of Sabouraud liquid nutrient broth inoculated at double concentration with the strain Aspergillus niger in the absence of compounds A and B.
An absorbance control was performed in parallel on compounds A and B alone. This control corresponds to 100 μl of double concentration sterile Sabouraud liquid nutrient broth+100 μl of double concentration compound A or B.
In the three cases (absorbance control, growth control and test), the final volume present in each of the microplate wells is 200 μl.
In the two cases (test and control), the inoculum represents the concentration of the Aspergillus niger strain present in the final volume of the wells (200 μl) and is between 2 and 6×10^5 cfu/ml of Aspergillus niger.

- % MIC of B alone (first concentration giving growth <= 25%): 0.5%
Compound: CC(=O)c1ccc(O)cc1 [B, 4-hydroxyacetophenone]
- microbial growth percentage (0.0625 weight % B): 86%
- microbial growth percentage (0.125 weight % B): 72%
- microbial growth percentage (0.25 weight % B): 79%
- microbial growth percentage (0.5 weight % B): 6%
